Data: US20240325435A1, “METHODS OF USING COMPOUND OF GLYCOSAMINOGLYCAN” (Holy Stone Healthcare Co., Ltd., priority 2013, published 2024)

Assays:
[1] = test system: Adjuvant-Induced Arthritis (AIA); test: Adjuvant-Induced Arthritis (rheumatoid arthritis) treatment effect in rats; format: in vivo, Sprague-Dawely rats; conditions: intravenous injection at day 14, 10 mg/kg
Method: • 1. Thirty of eight weeks male Sprague-Dawely rats (BioLASCO Taiwan Co., Ltd.) were prepared. Rats were divided into 4 groups randomly (n=9 for vehicle and Prednisolone group, n=6 for HA-ADH-Prednisolone and HA group). Every two rats were placed into one cage in rodent animal facility in Institute of Taiwan Animal Technology. • 2. Inject 0.1 mL of CFA (Complete Freund's Adjuvant, 10 mg/mL, Chondrex Inc.) containing 10 mg/mL of heat-killed mycobacterium into subcutaneously at a footpad of right hind limb. • 3. The needle should be inserted just under the skin of the footpad pointing toward the ankle: this maximizes delivery of the adjuvant to the draining popliteal lymph nodes. • 4. Severe and acute inflammation is observed within 30 minutes of injection, peaks within 3 to 4 days, and often persists for 20 to 25 days. • 5. Rat were treated at day 14 after induction of the Adjuvant-Induced Arthritis (AIA) by intravenous injection of Prednisolone or HA-Prednisolone (both 10 mg/kg), or saline as a control. • 6. Rats were sacrificed at day 20 after treatment and tissues were isolated hereafter.
• Paw thickness and Ankle circumference: Paw thickness determined by measuring paw diameter using a caliper, such as Mitsutoyo digimatic caliper. Ankle circumference determined by measuring 2 perpendicular diameters, the latero-lateral diameter (a) and the anteroposterior diameter (b), with a digital caliper and using the following formula: […]

Raw 264.7 cells [2] = test: In vitro anti-inflammatory effect, nitrite by Griess reaction in LPS-treated Raw 264.7 cells; format: cell-based; conditions: 10 μM Budesonide equivalent, 378 μg/ml HA, 4 hours, then 1 μg/mL LPS 24 hours
Method: • 1. Raw 264.7 cells were suspended in culture medium without phenol red (Gibco-BRL, Vienna, Austria) and adjusted to 10^6/ml, and treated with 10 μM Budesonide, 378 μg/ml HA and HA-ADH-Budesonide (equal to 10 μM Budesonide). • 2. After treatment with drugs for 4 hours, 1 μg/mL LPS was added into medium for 24 hours. • 3. Cells treated with medium only served as a negative control group and treated with LPS (1 μg/mL) as a positive control group. • 4. The culture supernatants were removed subsequently and the nitric oxide were accumulated for the measurement of iNOS activity by the Griess-reaction. • 5. 100 μl Griess reagent (1% sulfanilamide, 0.1% naphthlethylenediamine dihydrochloride in 2.5% phosphoric acid) was added into 100 μl culture supernatant and the color development was assessed at 550 nm with a ELISA microplate reader (SpectraMax® M2e Multimode Plate Reader, Molecular Devices, USA). • 6. Standard curves were generated with a serial dilution of sodium nitrite dissolved in culture medium which is phenol red free. […] The inflammation index herein is nitrite.

Raw 264.7 cells [3] = test: In vitro anti-inflammatory effect, PGE2 amount in LPS-treated Raw 264.7 cells; format: cell-based; conditions: 4 hours
Method: Raw 264.7 cells (1×10^6 cells/well, 1000 μL) were incubated in a 24-well culture plate in the presence of 5% CO2 at 37° C. for 24 hours. • 2. […] Cell media were collected, and used for measuring PGE2. • 4. Nunc-Immuno 96-well plates were coated with goat polyclonal anti-mouse IgG secondary antibody. • 5. Aliquots of cell media were added to the immune plate with primary PGE2 monoclonal antibody and a tracer PGE2-acetylcholinesterase overnight at room temperature in the dark. • 6. The next day, the wells were aspirated, washed with 100 μL wash buffer (Cayman Chemical, Ann Arbor, MI, USA) five times. • 7. 200 μL of Elman's reagent was added in each well, and incubated 60-90 minutes at room temperature out of direct light. • 8. Gentle rotating/shaking was used to decrease the time required for color development. • 9. Absorbance was read at 412 nm. • 10. The PGE2 concentration of each sample was calculated from a PGE2 standard curve. • 11. The PGE2 amount percentage was as a function of the PGE2 level of each sample divided by the one of the control group which was LPS-treated, then multiplied this value by 100. • 12. […]
Raw 264.7 cells (1×10^6 cells/well, 1000 μL) were incubated in a 24-well culture plate in the presence of 5% CO2 at 37° C. for 24 hours. • 2. […] Absorbance was read at 412 nm. • 10. The PGE2 concentration of each sample was calculated from a PGE2 standard curve. • 11. […]

hyaluronic acid [HA]
treatment effect, change percentage of ankle circumference (FIG. 12) [1]: enhance RA symptom | treatment effect, change percentage of paw thickness (FIG. 11) [1]: almost the same trend comparing with control group | anti-inflammation effect, change of nitrite concentration (FIG. 6) (Raw 264.7 cells [2]): have treatment effect

CC(C)(C(=O)O)c1ccc(C(O)CCCN2CCC(C(O)(c3ccccc3)c3ccccc3)CC2)cc1 (stereo not drawn) [Fexofenadine]
anti-inflammation effect, change percentage of PGE2 amount (FIG. 8) (Raw 264.7 cells [3]; 100 μM Fexofenadine or equivalent, then 1 μg/mL LPS 24 h): has treatment effect

C[C@]12C=CC(=O)C=C1CC[C@@H]1[C@@H]2[C@@H](O)C[C@@]2(C)[C@H]1CC[C@]2(O)C(=O)CO [Prednisolone]
treatment effect, change percentage of paw thickness (FIG. 11) [1]: showed the treatment effect | anti-inflammation effect, change percentage of PGE2 amount (FIG. 10) (Raw 264.7 cells [3]; 86.7 μM Prednisolone or equivalent, then 1 μg/mL LPS 24 hours): has treatment effect
